Where “and” joins values, the source holds several entries; their conditions need not be identical. Equal entries are not always repeated. Inconclusive results and toxic doses are left out. No stated cut-off is given here; in the data, active means T/C of 150% or more; inactive means T/C below 125%.
Test system: L1210 leukemia ip in BDF1 mice, survival T/C
Assay: NCI In Vivo Anticancer Drug Screen. Data for tumor model L1210 Leukemia (intraperitoneal) in B6D2F1 (BDF1) mice
Conditions: endpoint: mean survival time, higher = longer survival
How it was run: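 Tumor was transplanted into mice, which were then dosed with test compound or vehicle alone. Survival was recorded for each group, and the treated figure was expressed relative to the control figure.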

[1] = dose: 5.0 mg/kg/injection, schedule: Q01DX001 (ip), vehicle: saline
[2] = dose: 10.0 mg/kg/injection, schedule: Q01DX001 (ip), vehicle: saline
[3] = dose: 12.5 mg/kg/injection, schedule: Q04DX003 (ip), vehicle: Klucel (hydroxypropylcellulose) (HPC)
[4] = dose: 100.0 mg/kg/injection, schedule: Q04DX003 (ip), vehicle: Klucel (hydroxypropylcellulose) (HPC)
[5] = dose: 200.0 mg/kg/injection, schedule: Q04DX003 (ip), vehicle: Klucel (hydroxypropylcellulose) (HPC)
[6] = dose: 400.0 mg/kg/injection, schedule: Q04DX003 (ip), vehicle: Klucel (hydroxypropylcellulose) (HPC)
[7] = dose: 50.0 mg/kg/injection, schedule: Q01DX009 (ip), vehicle: saline with Tween-80
[8] = dose: 100.0 mg/kg/injection, schedule: Q01DX009 (ip), vehicle: saline with Tween-80
[9] = dose: 400.0 mg/kg/injection, schedule: Q01DX009 (ip), vehicle: saline with Tween-80
[10] = dose: 100.0 mg/kg/injection, schedule: Q04DX003 (ip), vehicle: saline with Tween-80
[11] = dose: 200.0 mg/kg/injection, schedule: Q04DX003 (ip), vehicle: saline with Tween-80
[12] = dose: 200.0 mg/kg/injection, schedule: Q01DX009 (ip), vehicle: saline with Tween-80
[13] = dose: 400.0 mg/kg/injection, schedule: Q04DX003 (ip), vehicle: saline with Tween-80
[14] = dose: 100.0 mg/kg/injection, schedule: Q01DX009 (ip), vehicle: Klucel (hydroxypropylcellulose) (HPC)
[15] = dose: 200.0 mg/kg/injection, schedule: Q01DX009 (ip), vehicle: Klucel (hydroxypropylcellulose) (HPC)
[16] = dose: 400.0 mg/kg/injection, schedule: Q01DX009 (ip), vehicle: Klucel (hydroxypropylcellulose) (HPC)

Measured: T/C

CCCCNC1=C(N2CC2)C(=O)C(NCCCC)=C(N2CC2)C1=O
inactive: dose: 1.25 mg/kg/injection, schedule: Q01DX001 (ip), vehicle: saline 105 % of control | dose: 1.25 mg/kg/injection, schedule: Q01DX009 (ip), vehicle: saline 110 % of control and 111 % of control | dose: 1.56 mg/kg/injection, schedule: Q04DX003 (ip), vehicle: Klucel (hydroxypropylcellulose) (HPC) 113 % of control | dose: 2.5 mg/kg/injection, schedule: Q01DX001 (ip), vehicle: saline 100 % of control | dose: 2.5 mg/kg/injection, schedule: Q01DX009 (ip), vehicle: saline 105 % of control and 109 % of control | dose: 3.12 mg/kg/injection, schedule: Q04DX003 (ip), vehicle: Klucel (hydroxypropylcellulose) (HPC) 121 % of control | [1] 98 % of control | dose: 5.0 mg/kg/injection, schedule: Q01DX009 (ip), vehicle: saline 118 % of control | [2] 105 % of control | dose: 10.0 mg/kg/injection, schedule: Q01DX009 (ip), vehicle: saline 114 % of control | [3] 110 % of control | dose: 18.0 mg/kg/injection, schedule: Q04DX003 (ip), vehicle: Klucel (hydroxypropylcellulose) (HPC) 112 % of control

CCOC(=O)C(=O)C1CCNC1=O (centres undefined)
inactive: dose: 12.5 mg/kg/injection, schedule: Q04DX003 (ip), vehicle: saline with Tween-80 92 % of control | dose: 25.0 mg/kg/injection, schedule: Q04DX003 (ip), vehicle: saline with Tween-80 95 % of control | dose: 50.0 mg/kg/injection, schedule: Q04DX003 (ip), vehicle: saline with Tween-80 97 % of control

CC1(C)[C@H]2CC[C@@]1(C)C(=O)[C@H]2[N+](=O)[O-]
inactive: [4] 103 % of control | [5] 86 % of control | [6] 93 % of control

c1ccc2c(c1)ccc1cc3c(ccc4ccccc43)cc12
inactive: dose: 25.0 mg/kg/injection, schedule: Q01DX001 (ip), vehicle: Klucel (hydroxypropylcellulose) (HPC) 106 % of control | dose: 50.0 mg/kg/injection, schedule: Q01DX001 (ip), vehicle: Klucel (hydroxypropylcellulose) (HPC) 109 % of control | dose: 100.0 mg/kg/injection, schedule: Q01DX001 (ip), vehicle: Klucel (hydroxypropylcellulose) (HPC) 108 % of control | dose: 200.0 mg/kg/injection, schedule: Q01DX001 (ip), vehicle: Klucel (hydroxypropylcellulose) (HPC) 108 % of control | dose: 400.0 mg/kg/injection, schedule: Q01DX001 (ip), vehicle: Klucel (hydroxypropylcellulose) (HPC) 109 % of control

O=C(CCCCC(=O)N/N=C/c1ccncc1)N/N=C/c1ccncc1
inactive: dose: 25.0 mg/kg/injection, schedule: Q01DX009 (ip), vehicle: saline with Tween-80 94 % of control | [7] 91 % of control | [8] 96 % of control and 89 % of control | [9] 91 % of control

COc1ccc(CCC(=O)O)cc1
inactive: dose: 50.0 mg/kg/injection, schedule: Q04DX003 (ip), vehicle: gum acacia 98 % of control | dose: 100.0 mg/kg/injection, schedule: Q04DX003 (ip), vehicle: gum acacia 98 % of control | dose: 200.0 mg/kg/injection, schedule: Q04DX003 (ip), vehicle: gum acacia 95 % of control

CCOC(=O)c1cnc(SC)nc1Nc1ccccc1Cl
inactive: [10] 87 % of control | [11] 87 % of control

C[As](C)Sc1ncccn1
inactive: dose: 6.25 mg/kg/injection, schedule: Q01DX009 (ip), vehicle: Klucel (hydroxypropylcellulose) (HPC) 100 % of control | dose: 12.5 mg/kg/injection, schedule: Q01DX009 (ip), vehicle: Klucel (hydroxypropylcellulose) (HPC) 103 % of control | [3] 98 % of control | dose: 25.0 mg/kg/injection, schedule: Q04DX003 (ip), vehicle: Klucel (hydroxypropylcellulose) (HPC) 95 % of control

OCCCC1CC2C=CC1C2 (centres undefined)
inactive: dose: 75.0 mg/kg/injection, schedule: Q01DX001 (ip), vehicle: other 102 % of control | dose: 150.0 mg/kg/injection, schedule: Q01DX001 (ip), vehicle: other 94 % of control

O=C1C=CC(=O)N1c1ccccc1[N+](=O)[O-]
inactive: dose: 1.5 mg/kg/injection, schedule: Q01DX009 (ip), vehicle: Klucel (hydroxypropylcellulose) (HPC) 97 % of control | dose: 3.0 mg/kg/injection, schedule: Q01DX009 (ip), vehicle: Klucel (hydroxypropylcellulose) (HPC) 103 % of control | dose: 6.0 mg/kg/injection, schedule: Q01DX009 (ip), vehicle: Klucel (hydroxypropylcellulose) (HPC) 94 % of control

CCOC(=O)c1ccc(NC(=O)Nc2cccc(O)c2)cc1
inactive: dose: 100.0 mg/kg/injection, schedule: Q01DX001 (ip), vehicle: saline with Tween-80 89 % of control | [8] 95 % of control | dose: 100.0 mg/kg/injection, schedule: Q04DX002 (ip), vehicle: saline with Tween-80 99 % of control and 110 % of control | [10] 95 % of control | dose: 200.0 mg/kg/injection, schedule: Q01DX001 (ip), vehicle: saline with Tween-80 98 % of control | [12] 99 % of control | dose: 200.0 mg/kg/injection, schedule: Q04DX002 (ip), vehicle: saline with Tween-80 99 % of control and 106 % of control | [11] 93 % of control | dose: 400.0 mg/kg/injection, schedule: Q01DX001 (ip), vehicle: saline with Tween-80 94 % of control | [9] 95 % of control | dose: 400.0 mg/kg/injection, schedule: Q04DX002 (ip), vehicle: saline with Tween-80 103 % of control and 104 % of control | [13] 94 % of control

Cc1ccc(S(=O)(=O)NC(=O)NCCCS(C)=O)cc1 (centres undefined)
inactive: [10] 100 % of control | [11] 102 % of control | [13] 100 % of control

COC12CC3C4=CCOC5CC(=O)N6c7ccccc7C1(CCN2C4)C6C53 (centres undefined)
inactive: [1] 97 % of control | [2] 97 % of control | dose: 20.0 mg/kg/injection, schedule: Q01DX001 (ip), vehicle: saline 101 % of control

COC(=O)c1ccc(OC(=O)Nc2ccc(Br)cc2)cc1
inactive: [14] 102 % of control | [15] 92 % of control | [16] 92 % of control

Fc1c(F)c(F)c(Oc2c(F)c(F)[c]([Sn]([c]3c(F)c(F)c(Oc4c(F)c(F)c(F)c(F)c4F)c(F)c3F)([c]3c(F)c(F)c(Oc4c(F)c(F)c(F)c(F)c4F)c(F)c3F)[c]3c(F)c(F)c(Oc4c(F)c(F)c(F)c(F)c4F)c(F)c3F)c(F)c2F)c(F)c1F
inactive: [14] 104 % of control | [4] 103 % of control | [15] 105 % of control | [5] 102 % of control | [16] 104 % of control | [6] 102 % of control

CCC(C)(NC(N)=O)c1ccccc1 (centres undefined)
inactive: dose: 100.0 mg/kg/injection, schedule: Q01DX001 (ip), vehicle: saline 101 % of control | dose: 200.0 mg/kg/injection, schedule: Q01DX001 (ip), vehicle: saline 104 % of control

CC1CCC2C(C1)N(C(C)C)OC2(C)C (centres undefined)
inactive: [7] 104 % of control | [8] 98 % of control | [10] 108 % of control | [11] 102 % of control

O/N=C\c1ccc(/C=N/O)cc1
inactive: [7] 97 % of control | [8] 93 % of control | [12] 97 % of control

CCCCC[C@H](O)/C=C/[C@@H]1[C@@H](C/C=C\CCCC(=O)O)[C@@H](O)C[C@H]1O
inactive: dose: 0.25 mg/kg/injection, schedule: Q#A X020 (ip), vehicle: saline 98 % of control | dose: 0.5 mg/kg/injection, schedule: Q#A X020 (ip), vehicle: saline 96 % of control | dose: 1.0 mg/kg/injection, schedule: Q#A X020 (ip), vehicle: saline 101 % of control | dose: 2.0 mg/kg/injection, schedule: Q#A X020 (ip), vehicle: saline 104 % of control | dose: 5.0 mg/kg/injection, schedule: Q04DX002 (ip), vehicle: saline 96 % of control | dose: 10.0 mg/kg/injection, schedule: Q04DX002 (ip), vehicle: saline 96 % of control | dose: 20.0 mg/kg/injection, schedule: Q04DX002 (ip), vehicle: saline 88 % of control
